This is an account of results in patent publication US20250223268A1, “4-Methylsulfonylbenzamide Compound, Preparation Method, Herbicidal Composition And Use” (Jiangsu Flag Chemical Industry Co., Ltd., priority 2022, published 2025).

What all share (format): in vivo
Data set [1] relates to Echinochloa crusgalli. Put plainly: Greenhouse herbicidal activity assay, post-emergence. The note with it: Post-emergence test, rate 150 g a.i./hm^2, grade by fresh weight inhibition rate. The essentials: (§1)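 Letter grades (A: ≥80% to 100%; C: ≥40% to <60%; E: <20%) express fresh weight inhibition recorded 14-21 days post-spray. Weeds were treated on the leaves once they reached 3-6 leaves in chamber-grown pots, allowed to dry naturally, then kept in the chamber.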

Data set [2] deals with Leptochloa chinensis. The data set is described as above. The note with it: Post-emergence test, rate 150 g a.i./hm^2, grade by fresh weight inhibition rate. Put shortly:
as §1

For data set [3], the system named is Cyperus iria. The description is as above. The note with it: Post-emergence test, rate 150 g a.i./hm^2, grade by fresh weight inhibition rate. Put shortly:
as §1

In data set [4] the test system is Digitaria sanguinalis. The data set is described as above. The note with it: Post-emergence test, rate 150 g a.i./hm^2, grade by fresh weight inhibition rate. The essentials: as §1
Data set [5] has as its system Eclipta prostrata. Described as above. The note with it: Post-emergence test, rate 150 g a.i./hm^2, grade by fresh weight inhibition rate. Put shortly: as §1
Data set [6] deals with Echinochloa crusgalli. Put plainly: Greenhouse herbicidal activity and crop safety comparison (Test Example 2). The essentials: (§2)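 Fresh weight inhibition, banded into grades A to E (E <20%), was rated 14-21 days after foliar spraying of 3-6 leaf plants, or 14-30 days after a soil spray applied 24 h post-sowing.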
In data set [7] the test system is Leptochloa chinensis. The data set is described as above. The essentials: as §2
Data set [8] has as its system Oryza sativa subsp. indica. Described as above. The essentials: as §2
In data set [9] the test system is Oryza sativa subsp. japonica. Described as above. Put shortly: as §2

In the case of `CCC(C)S(=O)(=O)c1c(S(C)(=O)=O)ccc(C(=O)Nc2nnco2)c1Cl` (racemic) [Compound 3-290], the “Control efficacy grade, Echinochloa crusgalli” value in data set [1] is on record as “A (Fresh weight inhibition rate≥80% to 100%)”. Further, the “Control efficacy grade, Leptochloa chinensis” value in [2] is listed as “A (Fresh weight inhibition rate≥80% to 100%)”. For the same compound, the “Control efficacy grade, Cyperus iria” value in [3] was “A (Fresh weight inhibition rate≥80% to 100%)”. Further, the “Control efficacy grade, Digitaria sanguinalis” value in data set [4] is “A (Fresh weight inhibition rate≥80% to 100%)”. Besides, the “Control efficacy grade, Eclipta prostrata” value in [5] was “A (Fresh weight inhibition rate≥80% to 100%)”. In addition, the “Echinochloa crusgalli, control efficacy grading (fresh weight inhibition rate)” value in data set [6] (Rate 150 g/ha) is on record as “A (Fresh weight inhibition rate≥80% to 100%)”. Also, in data set [7] (Rate 150 g/ha), the “Leptochloa chinensis, control efficacy grading (fresh weight inhibition rate)” value was “A (Fresh weight inhibition rate≥80% to 100%)”. For the same compound, the “Oryza sativa subsp. indica, grading of fresh weight inhibition rate (crop safety)” value in [8] (Rate 150 g/ha) is recorded as “E (Fresh weight inhibition rate<20%)”. For the same compound, the “Oryza sativa subsp. japonica, grading of fresh weight inhibition rate (crop safety)” value in [9] (Rate 150 g/ha) is listed as “E (Fresh weight inhibition rate<20%)”.
In the case of `CCc1nnc(NC(=O)c2ccc(S(C)(=O)=O)c(S(=O)(=O)C(C)CC)c2Cl)o1` (racemic) [Compound 3-406], in data set [1], the “Control efficacy grade, Echinochloa crusgalli” value is recorded as “A (Fresh weight inhibition rate≥80% to 100%)”. In data set [2], the “Control efficacy grade, Leptochloa chinensis” value was “A (Fresh weight inhibition rate≥80% to 100%)”. The “Control efficacy grade, Cyperus iria” value in [3] was “A (Fresh weight inhibition rate≥80% to 100%)”. Also, the “Control efficacy grade, Digitaria sanguinalis” value in data set [4] is given as “A (Fresh weight inhibition rate≥80% to 100%)”. For the same compound, the “Control efficacy grade, Eclipta prostrata” value in [5] is “A (Fresh weight inhibition rate≥80% to 100%)”. The “Echinochloa crusgalli, control efficacy grading (fresh weight inhibition rate)” value in data set [6] (Rate 150 g/ha) was “A (Fresh weight inhibition rate≥80% to 100%)”. Also, the “Leptochloa chinensis, control efficacy grading (fresh weight inhibition rate)” value in data set [7] (Rate 150 g/ha) is reported as “A (Fresh weight inhibition rate≥80% to 100%)”. Besides, the “Oryza sativa subsp. indica, grading of fresh weight inhibition rate (crop safety)” value in data set [8] (Rate 150 g/ha) is “E (Fresh weight inhibition rate<20%)”. Besides, the “Oryza sativa subsp. japonica, grading of fresh weight inhibition rate (crop safety)” value in [9] (Rate 150 g/ha) is “E (Fresh weight inhibition rate<20%)”.
On to `CCC(C)S(=O)(=O)c1c(S(C)(=O)=O)ccc(C(=O)Nc2nnc(C(C)C)o2)c1Cl` (racemic) [Compound 3-522], for which the “Control efficacy grade, Echinochloa crusgalli” value in data set [1] is “A (Fresh weight inhibition rate≥80% to 100%)”. In [2], the “Control efficacy grade, Leptochloa chinensis” value is “A (Fresh weight inhibition rate≥80% to 100%)”. Moreover, the “Control efficacy grade, Cyperus iria” value in data set [3] is recorded as “A (Fresh weight inhibition rate≥80% to 100%)”. For the same compound, in data set [4], the “Control efficacy grade, Digitaria sanguinalis” value was “C (Fresh weight inhibition rate≥40% to <60%)”. The “Control efficacy grade, Eclipta prostrata” value in [5] is listed as “A (Fresh weight inhibition rate≥80% to 100%)”. In addition, the “Echinochloa crusgalli, control efficacy grading (fresh weight inhibition rate)” value in data set [6] (Rate 150 g/ha) is on record as “A (Fresh weight inhibition rate≥80% to 100%)”. For the same compound, in data set [7] (Rate 150 g/ha), the “Leptochloa chinensis, control efficacy grading (fresh weight inhibition rate)” value is “A (Fresh weight inhibition rate≥80% to 100%)”. The “Oryza sativa subsp. indica, grading of fresh weight inhibition rate (crop safety)” value in [8] (Rate 150 g/ha) is “E (Fresh weight inhibition rate<20%)”. Moreover, the “Oryza sativa subsp. japonica, grading of fresh weight inhibition rate (crop safety)” value in data set [9] (Rate 150 g/ha) is listed as “E (Fresh weight inhibition rate<20%)”.
As for `CCC(C)S(=O)(=O)c1c(S(C)(=O)=O)ccc(C(=O)Nc2nnc(C3CC3)o2)c1Cl` (racemic) [Compound 3-638], in data set [1], the “Control efficacy grade, Echinochloa crusgalli” value is “A (Fresh weight inhibition rate≥80% to 100%)”. For the same compound, the “Control efficacy grade, Leptochloa chinensis” value in [2] is reported as “A (Fresh weight inhibition rate≥80% to 100%)”. Moreover, the “Control efficacy grade, Cyperus iria” value in [3] is recorded as “A (Fresh weight inhibition rate≥80% to 100%)”. In data set [4], the “Control efficacy grade, Digitaria sanguinalis” value is “B (Fresh weight inhibition rate≥260% to <80%)”. For the same compound, in data set [5], the “Control efficacy grade, Eclipta prostrata” value is “A (Fresh weight inhibition rate≥80% to 100%)”. In data set [6] (Rate 150 g/ha), the “Echinochloa crusgalli, control efficacy grading (fresh weight inhibition rate)” value is “A (Fresh weight inhibition rate≥80% to 100%)”. In data set [7] (Rate 150 g/ha), the “Leptochloa chinensis, control efficacy grading (fresh weight inhibition rate)” value is reported as “A (Fresh weight inhibition rate≥80% to 100%)”. In addition, in [8] (Rate 150 g/ha), the “Oryza sativa subsp. indica, grading of fresh weight inhibition rate (crop safety)” value is “E (Fresh weight inhibition rate<20%)”. The “Oryza sativa subsp. japonica, grading of fresh weight inhibition rate (crop safety)” value in [9] (Rate 150 g/ha) is given as “E (Fresh weight inhibition rate<20%)”.
Take `CCCS(=O)(=O)c1c(S(C)(=O)=O)ccc(C(=O)Nc2nnc(C)o2)c1Cl` [Compound 3-5]: the “Control efficacy grade, Echinochloa crusgalli” value in data set [1] is recorded as “A (Fresh weight inhibition rate≥80% to 100%)”. Besides, in [2], the “Control efficacy grade, Leptochloa chinensis” value is “A (Fresh weight inhibition rate≥80% to 100%)”. In addition, the “Control efficacy grade, Cyperus iria” value in data set [3] is “A (Fresh weight inhibition rate≥80% to 100%)”. Besides, the “Control efficacy grade, Digitaria sanguinalis” value in data set [4] is on record as “A (Fresh weight inhibition rate≥80% to 100%)”. For the same compound, in data set [5], the “Control efficacy grade, Eclipta prostrata” value is “A (Fresh weight inhibition rate≥80% to 100%)”. Besides, the “Echinochloa crusgalli, control efficacy grading (fresh weight inhibition rate)” value in data set [6] (Rate 150 g/ha) is recorded as “A (Fresh weight inhibition rate≥80% to 100%)”. Further, the “Leptochloa chinensis, control efficacy grading (fresh weight inhibition rate)” value in data set [7] (Rate 150 g/ha) is “A (Fresh weight inhibition rate≥80% to 100%)”. In addition, in [8] (Rate 150 g/ha), the “Oryza sativa subsp. indica, grading of fresh weight inhibition rate (crop safety)” value is “E (Fresh weight inhibition rate<20%)”. In addition, in data set [9] (Rate 150 g/ha), the “Oryza sativa subsp. japonica, grading of fresh weight inhibition rate (crop safety)” value is reported as “E (Fresh weight inhibition rate<20%)”.
`Cc1nnc(NC(=O)c2ccc(S(C)(=O)=O)c(S(=O)(=O)C(C)C)c2Cl)o1` [Compound 3-10, 2-chloro-3-(isopropylsulfonyl)-N-(5-methyl-1,3,4-oxadiazol-2-yl)-4-(methylsulfonyl)benzamide]: the pest or weed control at 150 g/ha in [1] (Echinochloa crus-galli, read-out: Control efficacy grade, Echinochloa crusgalli) was in the range of 80 to 100%; in data set [2] (Dinebra chinensis, read-out: Control efficacy grade, Leptochloa chinensis) it was 80 to 100%; in data set [3] (Cyperus iria, read-out: Control efficacy grade, Cyperus iria), 80 to 100%; in data set [4] (Digitaria sanguinalis, read-out: Control efficacy grade, Digitaria sanguinalis), 80 to 100%; in data set [5] (Eclipta prostrata, read-out: Control efficacy grade, Eclipta prostrata) it was 80 to 100%. In addition, the inhibition (commonly the change of the read-out against control, counted positive when it falls) at 150 g/ha lay in the range of 80 to 100% in data set [6] (Echinochloa crus-galli, Rate 150 g/ha, read-out: Echinochloa crusgalli, control efficacy grading (fresh weight inhibition rate)) and 80 to 100% in [7] (Dinebra chinensis, Rate 150 g/ha, read-out: Leptochloa chinensis, control efficacy grading (fresh weight inhibition rate)). In addition, the “Oryza sativa subsp. indica, grading of fresh weight inhibition rate (crop safety)” value in data set [8] (Rate 150 g/ha) is on record as “E (Fresh weight inhibition rate<20%)”. For the same compound, in data set [9] (Rate 150 g/ha), the “Oryza sativa subsp. japonica, grading of fresh weight inhibition rate (crop safety)” value is on record as “E (Fresh weight inhibition rate<20%)”.
For the compound `CCCCS(=O)(=O)c1c(S(C)(=O)=O)ccc(C(=O)Nc2nnc(C)o2)c1Cl` [Compound 3-15], the “Control efficacy grade, Echinochloa crusgalli” value in data set [1] is “B (Fresh weight inhibition rate≥260% to <80%)”. The “Control efficacy grade, Leptochloa chinensis” value in data set [2] is reported as “B (Fresh weight inhibition rate≥260% to <80%)”. The “Control efficacy grade, Cyperus iria” value in data set [3] is given as “B (Fresh weight inhibition rate≥260% to <80%)”. In addition, the “Control efficacy grade, Digitaria sanguinalis” value in data set [4] is given as “B (Fresh weight inhibition rate≥260% to <80%)”. Moreover, in data set [5], the “Control efficacy grade, Eclipta prostrata” value is “A (Fresh weight inhibition rate≥80% to 100%)”. Besides, in data set [6] (Rate 250 g/ha), the “Echinochloa crusgalli, control efficacy grading (fresh weight inhibition rate)” value was “A (Fresh weight inhibition rate≥80% to 100%)”. Also, the “Leptochloa chinensis, control efficacy grading (fresh weight inhibition rate)” value in [7] (Rate 250 g/ha) is reported as “A (Fresh weight inhibition rate≥80% to 100%)”. The “Oryza sativa subsp. indica, grading of fresh weight inhibition rate (crop safety)” value in [8] (Rate 250 g/ha) is listed as “E (Fresh weight inhibition rate<20%)”. Moreover, the “Oryza sativa subsp. japonica, grading of fresh weight inhibition rate (crop safety)” value in [9] (Rate 250 g/ha) is “E (Fresh weight inhibition rate<20%)”.
